Source: patent US20160265061A1, “COMPOSITION FOR DIAGNOSING OVARIAN CANCER METASTASIS BY USING CPG METHYLATION IN GENE, AND USE THEREOF” (EWHA UNIVERSITY - INDUSTRY COLLABORATION FOUNDATION, priority 2013, published 2016)

System: SK-OV-3 cell line
Test: 5-aza-2′-deoxycytidine treatment of SK-OV-3 cell line, gene expression changes by qRT-PCR
Assay type: cell-based, Human
[1] = primary cell line SK-OV-3 treated with 5, 10 and 20 μM for 3 days, qRT-PCR normalized to GAPDH

## Nc1ncn([C@H]2C[C@H](O)[C@@H](CO)O2)c(=O)n1 [5-aza-2′-deoxycytidine]
Cell line SK-OV-3, treatment for 3 days, FIGS. 12 to 14
  changes in expressions of the three genes (ADAM12, NTN4 and PTGS2): increased
Cell line SK-OV-3 treated with 5, 10 and 20 μM for 3 days, qRT-PCR normalized to GAPDH
  increase in ADAM12 gene expression: about 2 fold
[1]
  increase in NTN4 gene expression: about 2 fold
  increase in PTGS2 gene expression: about 2 fold
